Measured values as given in US8133849B2, “Herbicidal compounds” (Syngenta Limited, priority 2007, dated 2012).

Tests used:
Assay in all cases: Example B2 herbicidal action, post-emergence, pots in glasshouse, damage score 0-10
Format in all cases: in vivo
Settings in all cases: application post-emergence, rate 1000 g/ha, evaluated after 13 days
Ipomea hederaceae = system: Ipomea hederaceae
Experimental: (§1) Seeds of a variety of test species were sown in standard soil in pots. After 8 days cultivation (post-emergence) under controlled conditions in a glasshouse (at 24/16° C., day/night; 14 hours light; 65% humidity), the plants were sprayed with an aqueous spray solution derived from the formulation of the technical active ingredient in acetone/water (50:50) solution containing 0.5% Tween 20 (polyoxyethelyene sorbitan monolaurate, CAS RN 9005-64-5). The test plants were then grown in a glasshouse under controlled conditions in a glasshouse (at 24/16° C., day/night; 14 hours light; 65% humidity) and watered twice daily. After 13 days, the test was evaluated (10=total damage to plant; 0=no damage to plant).

Amaranthus retroflexus = system: Amaranthus retroflexus
Experimental: as §1

Solanum nigrum = system: Solanum nigrum
Experimental: as §1

Echinochloa crus-galli = system: Echinochloa crus-galli
Experimental: as §1

Setaria faberi = system: Setaria faberi
Experimental: as §1

| SMILES | IPOHE damage score (10=total damage to plant; 0=no damage to plant) (Ipomea hederaceae) | AMARE damage score (10=total damage to plant; 0=no damage to plant) (Amaranthus retroflexus) | SOLNI damage score (10=total damage to plant; 0=no damage to plant) (Solanum nigrum) | ECHCG damage score (10=total damage to plant; 0=no damage to plant) (Echinochloa crus-galli) | SETFA damage score (10=total damage to plant; 0=no damage to plant) (Setaria faberi) |
| --- | --- | --- | --- | --- | --- |
| CCOC(=O)OC1=C(c2cc(Cl)cc(C(F)(F)F)c2)S(=O)(=O)N(CC(F)F)c2nccnc21 [Compound C124] | 2 | 10 | 2 | 0 | 0 |
| O=S1(=O)C(c2cc(Cl)ccc2C(F)(F)F)=C(O)c2nccnc2N1CC(F)F [Compound D53] | 7 | 8 | 10 | 6 | 6 |
| CCN1c2nccnc2C(O)=C(c2c(F)cccc2C(F)(F)F)S1(=O)=O [Compound D21] | 9 | 8 | 9 | 6 | 6 |
| CC(C)C(=O)OC1=C(c2cccc(C(F)(F)F)c2Cl)S(=O)(=O)N(CC(F)F)c2nccnc21 [Compound C73] | 7 | 7 | 7 | 2 | 2 |
| CCN1c2nccnc2C(OC(=O)C(C)(C)C)=C(c2ccc(Cl)cc2C(F)(F)F)S1(=O)=O [Compound C15] | 8 | 9 | 9 | 7 | 2 |
| COc1ccc(F)c(C2=C(OC(=O)C(C)C)c3nccnc3N(CC(F)F)S2(=O)=O)c1 [Compound C138] | 2 | 0 | 7 | 1 | 0 |
| CCN1c2nccnc2C(OC(=O)C(C)(C)C)=C(c2cccc(C(F)(F)F)c2Cl)S1(=O)=O [Compound C76] | 0 | 0 | 3 | 0 | 0 |
| CCN1c2nccnc2C(O)=C(c2cccc(C(F)(F)F)c2)S1(=O)=O [Compound D3] | 1 | 10 | 1 | 1 | 0 |
| C#CCN1c2nccnc2C(OC(=O)SCC)=C(c2c(Cl)ccc(Cl)c2C(F)(F)F)S1(=O)=O [Compound C85] | 9 | 7 | 10 | 7 | 6 |
| CC(C)C(=O)OC1=C(c2ccc(C(F)(F)F)cc2C(F)(F)F)S(=O)(=O)N(CC(F)F)c2nccnc21 [Compound C127] | 8 | 8 | 10 | 4 | 2 |
| CCN1c2nccnc2C(O)=C(c2c(C(F)(F)F)cccc2C(F)(F)F)S1(=O)=O [Compound D43] | 8 | 7 | 8 | 3 | 4 |
| C=CCN1c2nccnc2C(O)=C(c2cc(Cl)ccc2C(F)(F)F)S1(=O)=O [Compound D54] | 4 | 2 | 7 | 3 | 3 |
| COc1ccc(F)c(C2=C(OC(=O)C(C)(C)C)c3nccnc3N(CC(F)F)S2(=O)=O)c1Cl [Compound C25] | 9 | 9 | 10 | 6 | 0 |
| CC(C)C(=O)OC1=C(c2ccccc2I)S(=O)(=O)N(CC(F)F)c2nccnc21 [Compound C117] | 9 | 10 | 10 | 8 | 7 |
| CC(C)(C)C(=O)OC1=C(c2cc(Cl)ccc2C(F)(F)F)S(=O)(=O)N(CC(F)F)c2nccnc21 [Compound C111] | 9 | 8 | 9 | 6 | 6 |
| O=S1(=O)C(c2cc(C(F)(F)F)ccc2Br)=C(O)c2nccnc2N1CC(F)F [Compound D30] | 10 | 10 | 10 | 6 | 3 |
| COc1ccc(Cl)c(C2=C(OC(=O)C(C)(C)C)c3nccnc3N(CC(F)F)S2(=O)=O)c1F [Compound C144] | 7 | 0 | 4 | 0 | 0 |
| CN1c2nccnc2C(O)=C(c2c(Cl)ccc(Cl)c2Cl)S1(=O)=O [Compound D47] | 8 | 8 | 10 | 4 | 1 |
| CC#CCN1c2nccnc2C(OC(=O)SCC)=C(c2c(Cl)ccc(Cl)c2C(F)(F)F)S1(=O)=O [Compound C97] | 4 | 0 | 6 | 1 | 0 |
| CC(C)(C)C(=O)OC1=C(c2c(F)ccc(Cl)c2Cl)S(=O)(=O)N(CC(F)F)c2nccnc21 [Compound C20] | 10 | 10 | 10 | 8 | 0 |
| Cc1ccc(C(F)(F)F)c(C2=C(OC(=O)C(C)C)c3nccnc3N(CC(F)F)S2(=O)=O)c1 [Compound C146] | 9 | 8 | 7 | 4 | 2 |
| CC(C)(C)C(=O)OC1=C(c2ccccc2I)S(=O)(=O)N(CC(F)F)c2nccnc21 [Compound C81] | 10 | 10 | 10 | 8 | 7 |
